Structures can show the parent of a compound that is named as a salt.
Assays:
[1] = Eu(III) complex of the ligand; cited from earlier work
[2] = Molar extinction coefficient from absorption spectrum in 0.1 M TRIS buffer; assay type: physicochemical
Description: This corresponds to 1.218×10^−6 moles of ligand in 50 mL and c=2.436×10^−5 M. A=ϵcl, at λmax, A=0.42853 at 327 nm. […] This corresponds to 2.472×10^−6 moles of ligand in 50 mL and c=4.945×10^−5 M. A=ϵcl; at λmax, A=0.96915 at 315 nm.

[3] = in 0.5 M H2SO4; cited from earlier work

For `O=C(NCCCN(CCCCN(CCCNC(=O)c1cccc(=O)n1O)C(=O)c1cccc(=O)n1O)C(=O)c1cccc(=O)n1O)c1cccc(=O)n1O` [3,4,3-LI(1,2-HOPO)], the “quantum yield of Eu(III) complex” value [1] is given as about 20%.

With `Cl.NCCOCCNC(=O)C(CCCN(CCCNC(=O)c1cccc(=O)n1O)C(=O)c1cccc(=O)n1O)N(CCCNC(=O)c1cccc(=O)n1O)C(=O)c1cccc(=O)n1O` (centres unmarked) [Compound 2-8] the “ϵ280/ϵ327 ratio for protein labelling” value ([2]; 0.1 M TRIS buffer pH 7.4) was 3.11, the “extinction coefficient ϵ at 327 nm (λmax)” value ([2]; 0.1 M TRIS buffer pH 7.4, 1 cm cuvette, based on CHN) was ~17,595 M^−1 cm^−1 and the “extinction coefficient at 280 nm” value ([2]; 0.1 M TRIS buffer pH 7.4, 280 nm) was about 5655 M⁻¹ cm⁻¹.

For `C=C[C@H]1C[N@@]2CC[C@H]1C[C@H]2[C@H](O)c1ccnc2ccc(OC)cc12` [Quinine Sulfate], the “reference quantum yield Φref” value [3] is listed as 0.546.

— patent US10434186B2, “Functionalized linear ligands and complexes thereof” (LUMIPHORE, INC., priority 2014, dated 2019)
